In ChEMBL document CHEMBL5579838, “Design, synthesis and antitumor activity of a novel FGFR2-selective degrader to overcome resistance of the FGFR2V564F gatekeeper mutation based on a pan-FGFR inhibitor” (Eur J Med Chem, 2024):
Each block holds one molecule with its values, some of them ahead of it. Calls of active or inactive are those of the source. The calls are words filed in the database; no cut-off is given here.

Columns and labels:
[1] = biological target: von Hippel-Lindau disease tumor suppressor/Fibroblast growth factor receptor 2 (Homo sapiens, UniProt P21802+P40337); assay: PROTAC activity at VHL/FGFR2 in human KATO III cells assessed as induction of FGFR2 degradation incubated for 24 hrs by Western blot analysis; format: cell-based; conditions: kato iii stomach cancer cell line
Chain of von Hippel-Lindau disease tumor suppressor/Fibroblast growth factor receptor 2 (P21802 whole entry): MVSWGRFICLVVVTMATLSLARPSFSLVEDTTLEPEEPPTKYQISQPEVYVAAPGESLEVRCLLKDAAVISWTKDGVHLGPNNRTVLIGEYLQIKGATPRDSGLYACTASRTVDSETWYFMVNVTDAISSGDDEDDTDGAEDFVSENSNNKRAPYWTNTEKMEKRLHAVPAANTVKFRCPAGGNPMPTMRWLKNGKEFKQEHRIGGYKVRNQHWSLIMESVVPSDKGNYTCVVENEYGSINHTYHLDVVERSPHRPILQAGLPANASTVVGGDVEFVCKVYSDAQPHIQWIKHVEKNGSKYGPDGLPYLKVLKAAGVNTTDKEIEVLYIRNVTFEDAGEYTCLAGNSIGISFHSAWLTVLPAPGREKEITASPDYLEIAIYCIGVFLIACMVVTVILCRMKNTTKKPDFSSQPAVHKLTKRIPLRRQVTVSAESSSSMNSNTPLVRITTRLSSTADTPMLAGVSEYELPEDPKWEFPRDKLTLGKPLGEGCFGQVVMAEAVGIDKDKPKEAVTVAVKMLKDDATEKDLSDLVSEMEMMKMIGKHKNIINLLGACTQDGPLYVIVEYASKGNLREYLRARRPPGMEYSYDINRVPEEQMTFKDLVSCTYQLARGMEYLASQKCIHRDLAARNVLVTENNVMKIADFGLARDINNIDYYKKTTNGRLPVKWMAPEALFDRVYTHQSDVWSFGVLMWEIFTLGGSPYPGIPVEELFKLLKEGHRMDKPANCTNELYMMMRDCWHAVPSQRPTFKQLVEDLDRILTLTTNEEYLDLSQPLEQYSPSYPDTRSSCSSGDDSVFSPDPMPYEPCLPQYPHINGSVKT
Chain of von Hippel-Lindau disease tumor suppressor/Fibroblast growth factor receptor 2 (P40337 whole entry): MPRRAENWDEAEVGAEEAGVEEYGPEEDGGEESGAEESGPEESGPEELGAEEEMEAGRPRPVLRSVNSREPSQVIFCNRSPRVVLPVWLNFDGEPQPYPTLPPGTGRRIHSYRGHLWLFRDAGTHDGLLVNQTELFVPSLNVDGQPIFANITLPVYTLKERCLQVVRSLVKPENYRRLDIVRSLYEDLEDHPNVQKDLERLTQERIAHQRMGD

[2] = biological target: T1, Fibroblast growth factor receptor 3 (Homo sapiens, UniProt P22607); assay: Induction of FGFR3 degradation in human MCF7 cells assessed as reduction in FGFR3 level at 0 to 300 nM measured after 24 hrs by Western blot analysis; format: cell-based; conditions: dose 0-300 nM
[3] = biological target: T2, Fibroblast growth factor receptor 4 (Homo sapiens, UniProt P22455); assay: Induction of FGFR4 degradation in human Huh-7 cells assessed as reduction in FGFR4 level at 0 to 300 nM measured after 24 hrs by Western blot analysis; format: cell-based; conditions: dose 0-300 nM
[4] = biological target: T3, Fibroblast growth factor receptor 1 (Homo sapiens, UniProt P11362); assay: Induction of FGFR1 degradation in human BXPC-3 cells assessed as reduction in FGFR1 level at 300 nM measured after 24 hrs by Western blot analysis relative to control; format: cell-based; set-up: scale not given: the % may be the effect or the level left
[5] = biological target: Vascular endothelial growth factor receptor 2 (Homo sapiens) (UniProt P35968); assay: Induction of VEGFR2 (unknown origin) degradation
Chain of Vascular endothelial growth factor receptor 2 (Homo sapiens) (P35968 whole entry): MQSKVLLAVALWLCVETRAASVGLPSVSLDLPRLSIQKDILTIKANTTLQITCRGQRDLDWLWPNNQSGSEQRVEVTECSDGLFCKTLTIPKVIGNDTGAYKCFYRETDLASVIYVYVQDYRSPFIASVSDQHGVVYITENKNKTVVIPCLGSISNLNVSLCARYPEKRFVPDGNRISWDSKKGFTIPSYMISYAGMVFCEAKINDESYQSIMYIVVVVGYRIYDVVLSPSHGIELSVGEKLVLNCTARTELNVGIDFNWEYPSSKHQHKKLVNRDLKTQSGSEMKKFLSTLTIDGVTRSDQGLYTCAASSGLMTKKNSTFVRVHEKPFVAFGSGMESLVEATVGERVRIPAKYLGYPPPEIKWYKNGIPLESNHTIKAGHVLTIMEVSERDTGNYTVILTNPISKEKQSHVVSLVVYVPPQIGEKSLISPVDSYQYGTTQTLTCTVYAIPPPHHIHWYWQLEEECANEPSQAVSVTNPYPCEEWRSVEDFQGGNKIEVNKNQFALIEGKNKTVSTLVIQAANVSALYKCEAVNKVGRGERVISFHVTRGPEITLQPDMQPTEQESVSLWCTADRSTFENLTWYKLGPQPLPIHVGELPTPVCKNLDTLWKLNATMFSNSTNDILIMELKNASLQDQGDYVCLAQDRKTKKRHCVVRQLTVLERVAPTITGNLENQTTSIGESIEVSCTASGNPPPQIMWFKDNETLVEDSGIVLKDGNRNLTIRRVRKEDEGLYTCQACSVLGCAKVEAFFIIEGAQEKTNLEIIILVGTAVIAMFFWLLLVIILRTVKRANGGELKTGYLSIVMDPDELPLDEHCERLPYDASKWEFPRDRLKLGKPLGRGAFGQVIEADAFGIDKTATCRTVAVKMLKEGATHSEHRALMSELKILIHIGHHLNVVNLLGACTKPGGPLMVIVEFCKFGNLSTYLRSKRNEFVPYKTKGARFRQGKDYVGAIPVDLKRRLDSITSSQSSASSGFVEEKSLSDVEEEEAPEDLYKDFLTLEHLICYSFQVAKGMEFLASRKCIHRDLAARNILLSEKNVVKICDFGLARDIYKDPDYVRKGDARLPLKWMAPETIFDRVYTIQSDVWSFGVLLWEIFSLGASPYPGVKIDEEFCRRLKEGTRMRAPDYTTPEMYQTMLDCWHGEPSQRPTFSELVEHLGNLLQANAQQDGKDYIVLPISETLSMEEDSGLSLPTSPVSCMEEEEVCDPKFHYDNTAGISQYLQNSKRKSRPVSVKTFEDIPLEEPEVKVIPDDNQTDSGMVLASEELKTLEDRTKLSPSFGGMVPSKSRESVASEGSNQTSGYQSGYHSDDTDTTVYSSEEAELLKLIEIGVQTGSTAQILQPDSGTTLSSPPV

[6] = system: KATO III stomach cancer cell line; assay: Inhibition of PLC-gamma autophosphorylation in human KATO III cells at 1 to 10 nM measured after 24 hrs by Western blot analysis; format: cell-based; conditions: dose 1-10 nM
[7] = biological target: T4, Fibroblast growth factor receptor substrate 2 (Homo sapiens) (UniProt Q8WU20); assay: Inhibition of FRS2 autophosphorylation in human KATO III cells at 1 to 10 nM measured after 24 hrs by Western blot analysis; format: cell-based; conditions: KATO III stomach cancer cell line, dose 1-10 nM
T4 sequence (whole entry): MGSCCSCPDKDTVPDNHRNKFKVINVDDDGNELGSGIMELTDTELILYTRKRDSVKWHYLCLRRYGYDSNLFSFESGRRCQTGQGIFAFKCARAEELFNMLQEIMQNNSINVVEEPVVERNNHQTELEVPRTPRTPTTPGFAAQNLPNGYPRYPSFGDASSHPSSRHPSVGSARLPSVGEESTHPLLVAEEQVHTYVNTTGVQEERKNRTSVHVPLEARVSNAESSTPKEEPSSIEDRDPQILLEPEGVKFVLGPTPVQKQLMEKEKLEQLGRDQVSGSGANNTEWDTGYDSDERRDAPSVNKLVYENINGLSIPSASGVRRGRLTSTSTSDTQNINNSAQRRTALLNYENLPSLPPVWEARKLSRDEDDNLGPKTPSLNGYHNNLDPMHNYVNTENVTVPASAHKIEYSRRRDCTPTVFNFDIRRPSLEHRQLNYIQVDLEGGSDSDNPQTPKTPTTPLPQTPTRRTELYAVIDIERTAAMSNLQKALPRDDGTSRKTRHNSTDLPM

[8] = biological target: T3, Fibroblast growth factor receptor 1
Target sequence in this assay (P11362 whole entry): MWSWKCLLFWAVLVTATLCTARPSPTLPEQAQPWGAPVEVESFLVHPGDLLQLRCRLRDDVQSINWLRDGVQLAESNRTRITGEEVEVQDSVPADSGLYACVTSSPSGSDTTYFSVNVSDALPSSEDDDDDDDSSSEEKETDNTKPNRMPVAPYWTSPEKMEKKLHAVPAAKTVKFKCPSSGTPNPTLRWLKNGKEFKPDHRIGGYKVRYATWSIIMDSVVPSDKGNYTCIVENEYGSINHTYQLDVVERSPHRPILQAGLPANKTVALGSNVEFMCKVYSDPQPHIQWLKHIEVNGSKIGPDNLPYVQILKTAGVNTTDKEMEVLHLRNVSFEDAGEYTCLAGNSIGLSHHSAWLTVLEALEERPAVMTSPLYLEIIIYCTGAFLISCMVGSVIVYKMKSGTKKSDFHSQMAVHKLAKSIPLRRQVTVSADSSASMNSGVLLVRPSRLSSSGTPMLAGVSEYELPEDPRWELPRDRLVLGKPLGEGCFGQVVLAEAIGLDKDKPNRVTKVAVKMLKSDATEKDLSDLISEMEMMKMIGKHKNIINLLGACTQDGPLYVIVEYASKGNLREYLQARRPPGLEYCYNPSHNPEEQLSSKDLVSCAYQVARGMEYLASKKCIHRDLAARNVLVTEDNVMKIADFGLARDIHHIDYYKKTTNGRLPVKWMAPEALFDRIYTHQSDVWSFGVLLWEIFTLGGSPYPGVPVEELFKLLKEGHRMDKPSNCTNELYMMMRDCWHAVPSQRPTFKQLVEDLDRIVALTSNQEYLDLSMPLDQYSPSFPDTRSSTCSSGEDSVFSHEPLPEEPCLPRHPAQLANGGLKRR
Description: Inhibition of FGFR1 (unknown origin)

[9] = biological target: T1, Fibroblast growth factor receptor 3
Target sequence in this assay (P22607 whole entry): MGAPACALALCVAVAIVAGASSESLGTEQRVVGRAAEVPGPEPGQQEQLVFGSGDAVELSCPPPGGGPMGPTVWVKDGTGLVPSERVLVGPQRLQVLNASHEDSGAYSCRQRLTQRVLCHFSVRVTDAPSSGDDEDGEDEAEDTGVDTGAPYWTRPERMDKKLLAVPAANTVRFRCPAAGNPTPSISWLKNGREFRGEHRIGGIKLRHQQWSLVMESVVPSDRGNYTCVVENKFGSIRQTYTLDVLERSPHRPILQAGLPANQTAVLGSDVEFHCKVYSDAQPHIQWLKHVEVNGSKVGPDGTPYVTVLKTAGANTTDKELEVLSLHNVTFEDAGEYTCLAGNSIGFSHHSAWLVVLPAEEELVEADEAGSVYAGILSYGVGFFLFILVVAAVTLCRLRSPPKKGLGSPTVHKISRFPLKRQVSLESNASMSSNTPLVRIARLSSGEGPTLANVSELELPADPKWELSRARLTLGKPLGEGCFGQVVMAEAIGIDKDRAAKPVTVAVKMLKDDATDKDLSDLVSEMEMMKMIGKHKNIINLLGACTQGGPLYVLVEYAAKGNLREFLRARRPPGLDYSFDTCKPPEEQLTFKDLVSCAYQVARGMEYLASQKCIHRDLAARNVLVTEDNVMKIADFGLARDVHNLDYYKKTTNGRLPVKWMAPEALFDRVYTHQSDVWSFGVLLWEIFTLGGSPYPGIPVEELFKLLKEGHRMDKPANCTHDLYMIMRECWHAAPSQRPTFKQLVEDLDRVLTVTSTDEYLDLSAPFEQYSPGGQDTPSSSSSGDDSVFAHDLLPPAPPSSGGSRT
Description: Inhibition of FGFR3 (unknown origin)

[10] = biological target: T2, Fibroblast growth factor receptor 4
Target sequence in this assay (P22455 whole entry): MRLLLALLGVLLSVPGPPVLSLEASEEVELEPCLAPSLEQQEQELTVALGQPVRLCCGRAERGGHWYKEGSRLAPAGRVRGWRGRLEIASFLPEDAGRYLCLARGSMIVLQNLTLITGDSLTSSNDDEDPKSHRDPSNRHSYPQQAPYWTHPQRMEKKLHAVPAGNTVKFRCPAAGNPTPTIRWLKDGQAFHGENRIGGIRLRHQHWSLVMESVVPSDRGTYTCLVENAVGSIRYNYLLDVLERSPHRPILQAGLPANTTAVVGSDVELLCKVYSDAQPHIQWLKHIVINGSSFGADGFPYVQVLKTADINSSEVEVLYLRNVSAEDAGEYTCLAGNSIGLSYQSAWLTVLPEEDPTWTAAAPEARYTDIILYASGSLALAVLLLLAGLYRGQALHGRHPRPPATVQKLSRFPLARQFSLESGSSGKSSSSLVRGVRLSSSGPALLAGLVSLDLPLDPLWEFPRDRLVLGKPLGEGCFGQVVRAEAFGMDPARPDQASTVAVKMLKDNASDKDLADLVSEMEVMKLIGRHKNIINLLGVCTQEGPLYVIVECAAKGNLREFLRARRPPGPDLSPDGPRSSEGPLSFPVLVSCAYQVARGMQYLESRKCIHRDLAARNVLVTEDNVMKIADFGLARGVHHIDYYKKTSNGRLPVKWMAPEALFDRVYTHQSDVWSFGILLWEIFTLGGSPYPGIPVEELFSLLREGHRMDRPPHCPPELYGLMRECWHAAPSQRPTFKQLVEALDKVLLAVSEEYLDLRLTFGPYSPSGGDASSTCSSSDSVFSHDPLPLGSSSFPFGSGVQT
Description: Inhibition of FGFR4 (unknown origin)

BaF3 [11] = assay: Antiproliferative activity against mouse BaF3 cells stably expressing wild type ETV6-FGFR1 fusion protein incubated for 72 hrs by CCK-8 assay; format: functional, cell-based; conditions: BaF3, 72 h
BaF3 [12] = assay: Antiproliferative activity against mouse BaF3 cells stably expressing wild type ETV6-FGFR2 fusion protein incubated for 72 hrs by CCK-8 assay; format: functional, cell-based; conditions: BaF3, 72 h
BaF3 [13] = assay: Antiproliferative activity against mouse BaF3 cells stably expressing wild type ETV6-FGFR3 fusion protein incubated for 72 hrs by CCK-8 assay; format: functional, cell-based; conditions: BaF3, 72 h
BaF3 [14] = assay: Antiproliferative activity against mouse BaF3 cells stably expressing wild type ETV6-FGFR4 fusion protein incubated for 72 hrs by CCK-8 assay; format: functional, cell-based; conditions: BaF3, 72 h
AN3-CA [15] = assay: Inhibition of cell migration in adherent human AN3-CA cells overexpressing FGFR2 assessed as inhibition of lateral migration at 10 nM incubated for 48 hrs by wound healing assay relative to control; format: functional
[16] = system: KATO III stomach cancer cell line; assay: Induction of cell cycle arrest at G0/G1 phase in FGFR2 amplified human KATO III cells at 0.1 to 10 nM incubated for 24 hrs by PI staining based flow cytometry analysis; format: functional; conditions: dose 0.1-10 nM
[17] = system: KATO III stomach cancer cell line; assay: Induction of cell cycle arrest at G0/G1 phase in FGFR2 amplified human KATO III cells assessed as inhibition of cyclin D1 protein expression at 0.1 to 10 nM by Western blot analysis; format: functional, cell-based; conditions: dose 0.1-10 nM
[18] = system: KATO III stomach cancer cell line; assay: Induction of cell cycle arrest at G0/G1 phase in FGFR2 amplified human KATO III cells assessed as inhibition of CDK4 protein expression at 0.1 to 10 nM by Western blot analysis; format: functional, cell-based; conditions: dose 0.1-10 nM
[19] = system: KATO III stomach cancer cell line; assay: Induction of cell cycle arrest at G0/G1 phase in FGFR2 amplified human KATO III cells assessed as inhibition of CDK6 protein expression at 0.1 to 10 nM by Western blot analysis; format: functional, cell-based; conditions: dose 0.1-10 nM
[20] = Cmax in overnight fasted mouse at 1 mg/kg, iv administered as single dose by LC-MS/MS analysis; format: ADME, organism-based; conditions: in vivo
[21] = Half life in overnight fasted mouse at 1 mg/kg, iv administered as single dose by LC-MS/MS analysis; format: ADME, organism-based; conditions: in vivo
[22] = AUC (0 to t) in overnight fasted mouse at 1 mg/kg, iv administered as single dose by LC-MS/MS analysis; format: ADME, organism-based; conditions: in vivo
[23] = Cmax in overnight fasted mouse at 10 mg/kg, po administered as single dose by LC-MS/MS analysis; format: ADME, organism-based; conditions: in vivo
[24] = Tmax in overnight fasted mouse at 10 mg/kg, po administered as single dose by LC-MS/MS analysis; format: ADME, organism-based; conditions: in vivo
[25] = Half life in overnight fasted mouse at 10 mg/kg, po administered as single dose by LC-MS/MS analysis; format: ADME, organism-based; conditions: in vivo
[26] = AUC (0 to t) in overnight fasted mouse at 10 mg/kg, po administered as single dose by LC-MS/MS analysis; format: ADME, organism-based; conditions: in vivo
[27] = Oral bioavailability in overnight fasted mouse at 10 mg/kg administered as single dose by LC-MS/MS analysis; format: ADME, organism-based; conditions: in vivo
[28] = biological target: T1, Fibroblast growth factor receptor 3; assay: Induction of FGFR3 degradation in human MCF7 cells assessed as reduction in FGFR3 level measured after 24 hrs by Western blot analysis; format: cell-based
Target sequence in this assay (P22607 whole entry): as the sequence (P22607 whole entry) above

[29] = biological target: T2, Fibroblast growth factor receptor 4; assay: Induction of FGFR4 degradation in human Huh-7 cells assessed as reduction in FGFR4 level measured after 24 hrs by Western blot analysis; format: cell-based
Target sequence in this assay (P22455 whole entry): as the sequence (P22455 whole entry) above

[30] = biological target: T3, Fibroblast growth factor receptor 1; assay: Induction of FGFR1 degradation in human BXPC-3 cells assessed as reduction in FGFR1 level measured after 24 hrs by Western blot analysis; format: cell-based
Target sequence in this assay (P11362 whole entry): as the sequence (P11362 whole entry) above

[31] = system: KATO III stomach cancer cell line; assay: cells; conditions: Homo sapiens, 72 h
Description: Antiproliferative activity against FGFR2 amplified human KATO III cells measured after 3 days by MTT assay

SNU-16 = assay: cells; conditions: Homo sapiens, SNU-16, 72 h
Description: Antiproliferative activity against FGFR2 amplified human SNU-16 cells measured after 72 hrs by MTT assay

AN3-CA [32] = assay: cells; conditions: Homo sapiens, 72 h
Description: Antiproliferative activity against human AN3-CA cells overexpressing FGFR2 measured after 72 hrs by MTT assay

NCI-H1975 = assay: cells; conditions: Homo sapiens, NCI-H1975, 72 h
A2780 = assay: cells; conditions: Homo sapiens, A2780, 72 h
BXPC-3 = assay: cells; conditions: Homo sapiens, BXPC-3, 72 h
cells = conditions: Homo sapiens, Huh-7, 72 h
MDA-MB-231 = assay: cells; conditions: Homo sapiens, MDA-MB-231, 72 h
SNU-449 = assay: cells; conditions: Homo sapiens, SNU-449, 72 h
HCT-116 = assay: cells; conditions: Homo sapiens, HCT-116, 72 h
MCF7 = assay: cells; conditions: Homo sapiens, MCF7, 72 h
in vitro [33] = conditions: human, L02 cells
in vitro [34] = conditions: human, HEK293T cells

DC50 [1]: 70 nM
SMILES: COc1cc(OC)c(Cl)c(NC(=O)N(C)c2cc(Nc3ccc(N4CCN(CC(=O)N[C@H](C(=O)N5C[C@H](O)C[C@H]5C(=O)N[C@@H](C)c5ccc(-c6scnc6C)cc5)C(C)(C)C)CC4)cc3)ncn2)c1Cl

Activity [2]: inactive
Activity [3]: inactive
Activity [4]: 30%
Activity [5]: inactive
inhibition [7]: Active
IC50 [8]: 1.47 nM
IC50 [9]: 1.26 nM
IC50 [10]: 15.1 nM
IC50 (BaF3 [11]): 27.5 nM
IC50 (BaF3 [12]): 0.91 nM
IC50 (BaF3 [13]): 0.2 nM
IC50 (BaF3 [14]): 32.7 nM
Cmax [20]: 1940 ng/mL
half-life [21]: 4.14 min
AUC(0-t) [22]: 151 ng·h/mL
Cmax [23]: 19.4 ng/mL
Tmax [24]: 30 min
half-life [25]: 45 min
AUC(0-t) [26]: 9.61 ng·h/mL
bioavailability [27]: 0.64%
DC50 [28]: > 300 nM
DC50 [29]: > 300 nM
DC50 [30]: > 300 nM
IC50 [31]: 0.79 nM
IC50 (SNU-16): 0.207 nM
IC50 (AN3-CA [32]): 4.63 nM
IC50 (NCI-H1975): 2240 nM
IC50 (A2780): 627 nM
IC50 (BXPC-3): 997 nM
IC50 (cells): > 5000 nM
IC50 (MDA-MB-231): 2520 nM
IC50 (SNU-449): 923 nM
IC50 (HCT-116): 1910 nM
IC50 (MCF7): 2980 nM
IC50 at 72 h (in vitro [33]): > 5000 nM
IC50 at 72 h (in vitro [34]): 2140 nM
SMILES: C[C@@H](Oc1ccc2[nH]nc(/C=C/c3cnn(CCNC(=O)CCCCCNc4ccc5c(c4)C(=O)N(C4CCC(=O)NC4=O)C5=O)c3)c2c1)c1c(Cl)cncc1Cl (stereo partly drawn)
inhibition [6]: Active
inhibition at 0.01 µM (AN3-CA [15]): > 15%
Activity [16]: Active
Activity [17]: Active
Activity [18]: Active
Activity [19]: Active
